Experimental data: ChEMBL document CHEMBL4665770, “Design and Discovery of Natural Cyclopeptide Skeleton Based Programmed Death Ligand 1 Inhibitor as Immune Modulator for Cancer Therapy” (J Med Chem, 2020)
Square brackets hold non-standard residues; d marks the D form. Peptide text beside a SMILES is read from it.

Each compound was assayed against Programmed cell death protein 1/Programmed cell death 1 ligand 1 (Homo sapiens) (UniProt Q15116+Q9NZQ7) (assay: Inhibition of PD1-Tag2/PD-L1-Tag1 (unknown origin) protein-protein interaction at 20 uM preincubated for 15 mins followed by addition of anti-Tag1-Eu3+ and anti-Tag2-XL665 measured after 3 hrs by HTRF assay relative to control). Settings: time 195.0 min.
Type: protein-complex assay

SMILES	inhibition [%]
CC(NCCCC[C@@H]1NC(=O)[C@@H](Cc2ccccc2)NC(=O)[C@H](CC(C)C)NC(=O)[C@H](CC(=O)O)NC(=O)[C@H]([C@@H](C)O)NC(=O)[C@@H]2CCCN2C(=O)[C@@H](Cc2c[nH]c3ccccc23)NC(=O)[C@H](CC(C)C)NC(=O)[C@H](CCCNC(=N)N)NC(=O)[C@H](C(C)C)N(C)C1=O)=C1C(=O)CC(C)(C)CC1=O	29.1
CC(C)C[C@@H]1NC(=O)[C@H](CO)NC(=O)[C@H]([C@@H](C)O)NC(=O)[C@@H]2CCCN2C(=O)[C@@H](Cc2ccccc2)NC(=O)[C@H](CC(C)C)NC(=O)[C@H](CCCNC(=N)N)NC(=O)[C@H](C(C)C)NC(=O)[C@@H]2CCCN2C(=O)[C@@H](Cc2ccccc2)NC1=O (cyclo(L[dF]PTSL[dF]PVR))	29.7
CC(NCCCC[C@@H]1NC(=O)[C@@H](Cc2ccccc2)NC(=O)[C@H](CC(C)C)NC(=O)[C@H](CC(=O)O)NC(=O)[C@H](C(C)C)NC(=O)[C@@H]2CCCN2C(=O)[C@@H](Cc2c[nH]c3ccccc23)NC(=O)[C@H](CC(C)C)NC(=O)[C@H](CCCNC(=N)N)NC(=O)[C@H](C(C)C)NC1=O)=C1C(=O)CC(C)(C)CC1=O	3.86
CC(C)C[C@@H]1NC(=O)[C@H](CCCNC(=N)N)NC(=O)[C@H](C(C)C)NC(=O)[C@@H]2CCCN2C(=O)[C@@H](Cc2ccccc2)NC(=O)[C@H](C)NC(=O)[C@H](CC(=O)O)NC(=O)[C@H](C(C)C)NC(=O)[C@@H]2CCCN2C(=O)[C@@H](Cc2ccccc2)NC1=O (cyclo(A[dF]PVRL[dF]PVD))	21.7
CC(C)C[C@@H]1NC(=O)[C@H](CCCNC(=N)N)NC(=O)[C@H](C(C)C)NC(=O)[C@@H]2CCCN2C(=O)[C@@H](Cc2ccccc2)NC(=O)[C@H](CC(C)C)NC(=O)[C@H]([C@@H](C)O)NC(=O)[C@@H]2CCCN2C(=O)[C@@H](Cc2ccccc2)NC(=O)[C@H](CC(=O)O)NC1=O (cyclo(D[dF]PTL[dF]PVRL))	-2.13
CC(C)C[C@@H]1NC(=O)[C@H](CC(=O)O)NC(=O)[C@H]([C@@H](C)O)NC(=O)[C@@H]2CCCN2C(=O)[C@@H](Cc2ccccc2)NC(=O)[C@H](Cc2cnc[nH]2)NC(=O)[C@H](CCCNC(=N)N)NC(=O)[C@H](C(C)C)NC(=O)[C@@H]2CCCN2C(=O)[C@@H](Cc2ccccc2)NC1=O (cyclo(DL[dF]PVRH[dF]PT))	7.13
CC(NCCCC[C@@H]1NC(=O)[C@@H](Cc2ccccc2)NC(=O)[C@H](CC(C)C)NC(=O)[C@H](CC(=O)O)NC(=O)[C@H]([C@@H](C)O)N(C)C(=O)[C@@H]2CCCN2C(=O)[C@@H](Cc2c[nH]c3ccccc23)NC(=O)[C@H](CC(C)C)NC(=O)[C@H](CCCNC(=N)N)NC(=O)[C@H](C(C)C)NC1=O)=C1C(=O)CC(C)(C)CC1=O	32.3
CC(C)C[C@@H]1NC(=O)[C@H](CC(=O)O)NC(=O)[C@H](C(C)C)NC(=O)[C@@H]2CCCN2C(=O)[C@@H](Cc2ccccc2)NC(=O)[C@H](CC(C)C)NC(=O)[C@H](CCCNC(=N)N)NC(=O)[C@H](C(C)C)NC(=O)[C@@H]2CCCN2C(=O)[C@@H](CCC(=O)O)NC1=O (cyclo(DL[dE]PVRL[dF]PV))	22.5
CC(C)C[C@@H]1NC(=O)[C@H](CC(=O)O)NC(=O)[C@H]([C@@H](C)O)NC(=O)[C@@H]2CCCN2C(=O)[C@@H](Cc2ccccc2)NC(=O)[C@H](CC(C)C)NC(=O)[C@H](CCC(N)=O)NC(=O)[C@H](C(C)C)NC(=O)[C@@H]2CCCN2C(=O)[C@@H](Cc2ccccc2)NC1=O (cyclo(DL[dF]PVQL[dF]PT))	47.5
CC(C)C[C@@H]1NC(=O)[C@H](CC(=O)O)NC(=O)[C@H](C(C)C)NC(=O)[C@@H]2CCCN2C(=O)[C@@H](Cc2ccccc2)NC(=O)[C@H](C)NC(=O)[C@H](CCCNC(=N)N)NC(=O)[C@H](C)NC(=O)[C@@H]2CCCN2C(=O)[C@@H](Cc2ccccc2)NC1=O (cyclo(ARA[dF]PVDL[dF]P))	33.7
CC(C)C[C@@H]1NC(=O)[C@H](CC(=O)O)NC(=O)[C@H](CCCNC(=N)N)NC(=O)[C@H](C(C)C)NC(=O)[C@@H]2CCCN2C(=O)[C@@H](Cc2ccccc2)NC(=O)[C@H](CC(C)C)NC(=O)[C@H]([C@@H](C)O)NC(=O)[C@@H]2CCCN2C(=O)[C@@H](Cc2ccccc2)NC1=O (cyclo(DL[dF]PTL[dF]PVR))	-7.34
CC(C)C[C@@H]1NC(=O)[C@H](CCCNC(=N)N)NC(=O)[C@H](C(C)C)NC(=O)[C@@H]2CCCN2C(=O)[C@@H](Cc2ccccc2)NC(=O)[C@H](CC(C)C)NC(=O)[C@H](CCCNC(=N)N)NC(=O)[C@H](C(C)C)NC(=O)[C@@H]2CCCN2C(=O)[C@@H](Cc2ccccc2)NC1=O (cyclo(L[dF]PVRL[dF]PVR))	-5.54
CC(C)C[C@@H]1NC(=O)[C@H](CC(=O)O)NC(=O)[C@H]([C@@H](C)O)NC(=O)[C@@H]2CCCN2C(=O)[C@@H](Cc2ccccc2)NC(=O)[C@H](CC(C)C)NC(=O)[C@H](CCCNC(=N)N)NC(=O)[C@H](C(C)C)NC(=O)[C@@H]2CCCN2C(=O)[C@@H](Cc2ccc(O)cc2)NC1=O (cyclo(DL[dY]PVRL[dF]PT))	18.7
CC(C)C[C@@H]1NC(=O)[C@H](CCCNC(=N)N)NC(=O)[C@H](C(C)C)NC(=O)[C@H](CC(=O)O)NC(=O)[C@@H]2CCCN2C(=O)[C@@H](Cc2ccccc2)NC(=O)[C@H](CC(C)C)NC(=O)[C@H]([C@@H](C)O)NC(=O)[C@@H]2CCCN2C(=O)[C@@H](Cc2ccccc2)NC1=O (cyclo(DVRL[dF]PTL[dF]P))	1.93
CC(C)C[C@@H]1NC(=O)[C@H](CCCNC(=N)N)NC(=O)[C@H](CC(=O)O)NC(=O)[C@H](C(C)C)NC(=O)[C@@H]2CCCN2C(=O)[C@@H](Cc2ccccc2)NC(=O)[C@H](CC(C)C)NC(=O)[C@H]([C@@H](C)O)NC(=O)[C@@H]2CCCN2C(=O)[C@@H](Cc2ccccc2)NC1=O (cyclo(DRL[dF]PTL[dF]PV))	-4.8
CC(C)C[C@@H]1NC(=O)[C@H](CCCNC(=N)N)NC(=O)[C@H](C(C)C)NC(=O)[C@@H]2CCCN2C(=O)[C@@H](Cc2ccccc2)NC(=O)[C@H](CC(=O)O)NC(=O)[C@H](CC(C)C)NC(=O)[C@H]([C@@H](C)O)NC(=O)[C@@H]2CCCN2C(=O)[C@@H](Cc2ccccc2)NC1=O (cyclo(D[dF]PVRL[dF]PTL))	-5.92
CC(C)C[C@@H]1NC(=O)[C@H](CCCNC(=N)N)NC(=O)[C@H](C)NC(=O)[C@@H]2CCCN2C(=O)[C@@H](Cc2ccccc2)NC(=O)[C@H](C)NC(=O)[C@H](CCCNC(=N)N)NC(=O)[C@H](C)NC(=O)[C@@H]2CCCN2C(=O)[C@@H](Cc2ccccc2)NC1=O (cyclo(ARA[dF]PARL[dF]P))	0.7
CC(C)C[C@@H]1NC(=O)[C@H](CCCNC(=N)N)NC(=O)[C@H](C(C)C)NC(=O)[C@@H]2CCCN2C(=O)[C@@H](Cc2ccccc2)NC(=O)[C@H](CC(C)C)NC(=O)[C@H](CCCNC(=N)N)NC(=O)[C@H](C)NC(=O)[C@@H]2CCCN2C(=O)[C@@H](Cc2ccccc2)NC1=O (cyclo(ARL[dF]PVRL[dF]P))	22.4
CC(C)C[C@@H]1NC(=O)[C@H](C)NC(=O)[C@H](C(C)C)NC(=O)[C@@H]2CCCN2C(=O)[C@@H](Cc2ccccc2)NC(=O)[C@H](CC(C)C)NC(=O)[C@H](CCCNC(=N)N)NC(=O)[C@H](C(C)C)NC(=O)[C@@H]2CCCN2C(=O)[C@@H](Cc2ccccc2)NC1=O (cyclo(AL[dF]PVRL[dF]PV))	28.8
CC(C)C[C@@H]1NC(=O)[C@H](CCCNC(=N)N)NC(=O)[C@H]([C@@H](C)O)NC(=O)[C@@H]2CCCN2C(=O)[C@@H](Cc2ccccc2)NC(=O)[C@H](CC(C)C)NC(=O)[C@H](CCCNC(=N)N)NC(=O)[C@H](C(C)C)NC(=O)[C@@H]2CCCN2C(=O)[C@@H](Cc2ccccc2)NC1=O (cyclo(L[dF]PTRL[dF]PVR))	16.9
CC(NCCCC[C@@H]1NC(=O)[C@@H]2CCCN2C(=O)[C@@H](Cc2ccccc2)NC(=O)[C@H](CC(C)C)NC(=O)[C@H](CC(=O)O)NC(=O)[C@H]([C@@H](C)O)NC(=O)[C@@H]2CCCN2C(=O)[C@@H](Cc2c[nH]c3ccccc23)NC(=O)[C@H](CC(C)C)NC(=O)[C@H](CCCNC(=N)N)NC1=O)=C1C(=O)CC(C)(C)CC1=O	13.1
CC(C)C[C@@H]1NC(=O)[C@H](CCCNC(=N)N)NC(=O)[C@H](C(C)C)NC(=O)[C@@H]2CCCN2C(=O)[C@@H](Cc2ccccc2)NC(=O)[C@H](CC(C)C)NC(=O)[C@H]([C@@H](C)O)NC(=O)[C@H](CC(=O)O)NC(=O)[C@@H]2CCCN2C(=O)[C@@H](Cc2ccccc2)NC1=O (cyclo(DTL[dF]PVRL[dF]P))	23.9
CC(C)C[C@@H]1NC(=O)[C@H](CCCNC(=N)N)NC(=O)[C@H](C(C)C)NC(=O)[C@@H]2CCCN2C(=O)[C@@H](Cc2ccccc2)NC(=O)[C@H](C)NC(=O)[C@H](CCC(=O)O)NC(=O)[C@H](C)NC(=O)[C@@H]2CCCN2C(=O)[C@@H](Cc2ccccc2)NC1=O	-6.08
CC(C)C[C@@H]1NC(=O)[C@H](CCCNC(=N)N)NC(=O)[C@H](C(C)C)NC(=O)[C@@H]2CCCN2C(=O)[C@@H](Cc2ccccc2)NC(=O)[C@H](C)NC(=O)[C@H](C)NC(=O)[C@H](C(C)C)NC(=O)[C@@H]2CCCN2C(=O)[C@@H](Cc2ccccc2)NC1=O (cyclo(AA[dF]PVRL[dF]PV))	16.7
CC(C)C[C@@H]1NC(=O)[C@H](CCCNC(=N)N)NC(=O)[C@H](C(C)C)NC(=O)[C@H](C)NC(=O)[C@@H](Cc2ccccc2)NC(=O)[C@H](C)NC(=O)[C@H](CCCNC(=N)N)NC(=O)[C@H](C(C)C)NC(=O)[C@@H]2CCCN2C(=O)[C@@H](Cc2ccccc2)NC1=O (cyclo(AVRL[dF]PVRA[dF]))	-0.657
CC(C)C[C@@H]1NC(=O)[C@H](CC(=O)O)NC(=O)[C@H]([C@@H](C)O)NC(=O)[C@@H]2CCCN2C(=O)[C@@H](Cc2ccccc2)NC(=O)[C@H](CC(N)=O)NC(=O)[C@H](CCCNC(=N)N)NC(=O)[C@H](C(C)C)NC(=O)[C@@H]2CCCN2C(=O)[C@@H](Cc2ccccc2)NC1=O (cyclo(DL[dF]PVRN[dF]PT))	17.4
CC(C)C[C@@H]1NC(=O)[C@H](COP(=O)(O)O)NC(=O)[C@H]([C@@H](C)O)NC(=O)[C@@H]2CCCN2C(=O)[C@@H](Cc2ccccc2)NC(=O)[C@H](CC(C)C)NC(=O)[C@H](CCCNC(=N)N)NC(=O)[C@H](C(C)C)NC(=O)[C@@H]2CCCN2C(=O)[C@@H](Cc2ccccc2)NC1=O	26
